*1 amine or outer side, *2 acyl side, *3 side chain or, on linkers, in order; H or OH if unused. Where a SMILES comes first, the peptide text is derived from it. Bridges are numbered along the chain shown (N, C = ends). [ ]: non-standard residue; d: D form. The star is where a group is joined. hPhe(3,5-F2-4-CF3) = N[C@@H](CCc1cc(F)c(C(F)(F)F)c(F)c1)C(=O)O; NPrPhe(4-CF3) = CCCN[C@@H](Cc1ccc(C(F)(F)F)cc1)C(=O)O; X16 = O=C([C@@H](N[*:1])C1CC(F)(F)C1)[*:2]; NMeGly(cPent) = CN[C@H](C(=O)O)C1CCCC1; X9 = C[C@@](N[*:1])(C(=O)[*:2])C1CC1; X13 = CCC[C@](C)(N[*:1])C(=O)[*:2]; NMeD = CN[C@@H](CC(=O)O)C(=O)O; NMeL = CN[C@@H](CC(C)C)C(=O)O; αMeL = CC(C)C[C@](C)(N)C(=O)O; αMeV = CC(C)[C@](C)(N)C(=O)O; Iva = CC[C@](C)(N)C(=O)O; Morpholide = C1CN(*)CCO1; Ac5c = NC1(C(=O)O)CCCC1; Aze = O=C(O)[C@@H]1CCN1; Sar = CNCC(=O)O
Tests used:
[1] = target: GDP-bound NRAS wild-type protein (Homo sapiens, UniProt P01111); test: Binding to NRAS by surface plasmon resonance (SPR), Single Cycle Kinetics; conditions: KD ratio NRAS/KRAS, SPR
Sequence of GDP-bound NRAS wild-type protein (P01111 whole entry): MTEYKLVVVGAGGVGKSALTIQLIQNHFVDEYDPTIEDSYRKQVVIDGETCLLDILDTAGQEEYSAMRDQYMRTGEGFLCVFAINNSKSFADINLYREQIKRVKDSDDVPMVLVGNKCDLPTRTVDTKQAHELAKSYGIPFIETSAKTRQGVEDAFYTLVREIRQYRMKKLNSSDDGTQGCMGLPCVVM

[2] = target: GDP-bound HRAS wild-type protein (Homo sapiens, UniProt P01112); test: Binding to HRAS by surface plasmon resonance (SPR), Single Cycle Kinetics; conditions: KD ratio HRAS/KRAS, SPR
Sequence of GDP-bound HRAS wild-type protein (P01112 whole entry): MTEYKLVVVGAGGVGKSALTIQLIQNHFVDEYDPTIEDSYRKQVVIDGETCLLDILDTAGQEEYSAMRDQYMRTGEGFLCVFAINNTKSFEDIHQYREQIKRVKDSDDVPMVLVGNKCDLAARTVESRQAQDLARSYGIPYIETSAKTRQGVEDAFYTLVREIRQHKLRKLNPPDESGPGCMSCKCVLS

With `CCCN1C(=O)CN(C)C(=O)[C@@H]2CCN2C(=O)[C@H](C2CC(F)(F)C2)NC(=O)[C@H](CC(C)C)N(C)C(=O)C[C@@H](C(=O)N2CCOCC2)N(C)C(=O)[C@H](C2CCCC2)N(C)C(=O)C2(CCCC2)NC(=O)[C@@H]2CCCN2C(=O)[C@H](CCc2cc(F)c(C(F)(F)F)c(F)c2)NC(=O)CN(C)C(=O)[C@@H]1Cc1ccc(C(F)(F)F)cc1` [PP0786] ([NMeL][X16][Aze][Sar][NPrPhe(4-CF3)][Sar][hPhe(3,5-F2-4-CF3)]P[Ac5c][NMeGly(cPent)][NMeD]-Morpholide; lactam N-11) the “NRAS/KRAS (ratio of KD value with respect to GDP-bound NRAS wild-type protein to KD value with respect to KRAS)” value [1] was “B (a compound having 3 or more and less than 10 is denoted as B)” and the “HRAS/KRAS (ratio of KD value with respect to GDP-bound HRAS wild-type protein to KD value with respect to KRAS)” value [2] was “B (a compound having 3 or more and less than 10 is denoted as B)”.

For `CCCN1C(=O)[C@@H]2CCN2C(=O)CN(C)C(=O)[C@H](C2CC(F)(F)C2)NC(=O)[C@H](CC(C)C)N(C)C(=O)C[C@@H](C(=O)N2CCOCC2)N(C)C(=O)[C@H](C2CCCC2)N(C)C(=O)C2(CCCC2)NC(=O)[C@@H]2CCCN2C(=O)[C@H](CCc2cc(F)c(C(F)(F)F)c(F)c2)NC(=O)CN(C)C(=O)[C@@H]1Cc1ccc(C(F)(F)F)cc1` [PP0787] ([NMeL][X16][Sar][Aze][NPrPhe(4-CF3)][Sar][hPhe(3,5-F2-4-CF3)]P[Ac5c][NMeGly(cPent)][NMeD]-Morpholide; lactam N-11), the “NRAS/KRAS (ratio of KD value with respect to GDP-bound NRAS wild-type protein to KD value with respect to KRAS)” value [1] was “C (A compound having a KD ratio of 0.1 or more and less than 3 is denoted as C)” and the “HRAS/KRAS (ratio of KD value with respect to GDP-bound HRAS wild-type protein to KD value with respect to KRAS)” value [2] was “B (a compound having 3 or more and less than 10 is denoted as B)”.

With `CCCN1C(=O)CN(C)C(=O)CN(C)C(=O)[C@H]([C@@H](C)CC)NC(=O)[C@H](CC(C)C)N(C)C(=O)C[C@@H](C(=O)N(C)C)N(C)C(=O)[C@H](C2CCCC2)N(C)C(=O)C2(CCCC2)NC(=O)[C@@H]2CCCN2C(=O)[C@H](CCc2cc(F)c(C(F)(F)F)c(F)c2)NC(=O)CN(C)C(=O)[C@@H]1Cc1ccc(C(F)(F)F)cc1` [PP0788] ([NMeL]I[Sar][Sar][NPrPhe(4-CF3)][Sar][hPhe(3,5-F2-4-CF3)]P[Ac5c][NMeGly(cPent)][NMeD]-NMe2; lactam N-11) the “NRAS/KRAS (ratio of KD value with respect to GDP-bound NRAS wild-type protein to KD value with respect to KRAS)” value [1] was “B (a compound having 3 or more and less than 10 is denoted as B)” and the “HRAS/KRAS (ratio of KD value with respect to GDP-bound HRAS wild-type protein to KD value with respect to KRAS)” value [2] was “C (A compound having a KD ratio of 0.1 or more and less than 3 is denoted as C)”.

`CCCN1C(=O)[C@@H]2CCN2C(=O)CN(C)C(=O)[C@H]([C@@H](C)CC)NC(=O)[C@H](CC(C)C)N(C)C(=O)C[C@@H](C(=O)N2CCOCC2)N(C)C(=O)[C@H](C2CCCC2)N(C)C(=O)C2(CCCC2)NC(=O)[C@@H]2CCCN2C(=O)[C@H](CCc2cc(F)c(C(F)(F)F)c(F)c2)NC(=O)CN(C)C(=O)[C@@H]1Cc1ccc(C(F)(F)F)cc1` [PP0789] ([NMeL]I[Sar][Aze][NPrPhe(4-CF3)][Sar][hPhe(3,5-F2-4-CF3)]P[Ac5c][NMeGly(cPent)][NMeD]-Morpholide; lactam N-11) was tested, and the “NRAS/KRAS (ratio of KD value with respect to GDP-bound NRAS wild-type protein to KD value with respect to KRAS)” value [1] was “C (A compound having a KD ratio of 0.1 or more and less than 3 is denoted as C)” and the “HRAS/KRAS (ratio of KD value with respect to GDP-bound HRAS wild-type protein to KD value with respect to KRAS)” value [2] was “B (a compound having 3 or more and less than 10 is denoted as B)”.

In the case of `CCCN1C(=O)[C@@H]2CCN2C(=O)CN(C)C(=O)[C@H]([C@@H](C)CC)NC(=O)[C@H](CC(C)C)N(C)C(=O)C[C@@H](C(=O)N2CCOCC2)N(C)C(=O)[C@H](C2CCCC2)N(C)C(=O)[C@](C)(CC)NC(=O)[C@@H]2CCCN2C(=O)[C@H](CCc2cc(F)c(C(F)(F)F)c(F)c2)NC(=O)CN(C)C(=O)[C@@H]1Cc1ccc(C(F)(F)F)cc1` [PP0790] ([NMeL]I[Sar][Aze][NPrPhe(4-CF3)][Sar][hPhe(3,5-F2-4-CF3)]P[Iva][NMeGly(cPent)][NMeD]-Morpholide; lactam N-11), the “NRAS/KRAS (ratio of KD value with respect to GDP-bound NRAS wild-type protein to KD value with respect to KRAS)” value [1] is reported as “C (A compound having a KD ratio of 0.1 or more and less than 3 is denoted as C)” and the “HRAS/KRAS (ratio of KD value with respect to GDP-bound HRAS wild-type protein to KD value with respect to KRAS)” value [2] is reported as “B (a compound having 3 or more and less than 10 is denoted as B)”.

In the case of `CCCN1C(=O)[C@@H]2CCN2C(=O)CN(C)C(=O)[C@H]([C@@H](C)CC)NC(=O)[C@H](CC(C)C)N(C)C(=O)C[C@@H](C(=O)N2CCOCC2)N(C)C(=O)[C@H](C2CCCC2)N(C)C(=O)[C@](C)(C2CC2)NC(=O)[C@@H]2CCCN2C(=O)[C@H](CCc2cc(F)c(C(F)(F)F)c(F)c2)NC(=O)CN(C)C(=O)[C@@H]1Cc1ccc(C(F)(F)F)cc1` [PP0791] ([NMeL]I[Sar][Aze][NPrPhe(4-CF3)][Sar][hPhe(3,5-F2-4-CF3)]P[X9][NMeGly(cPent)][NMeD]-Morpholide; lactam N-11), the “NRAS/KRAS (ratio of KD value with respect to GDP-bound NRAS wild-type protein to KD value with respect to KRAS)” value [1] is reported as “C (A compound having a KD ratio of 0.1 or more and less than 3 is denoted as C)” and the “HRAS/KRAS (ratio of KD value with respect to GDP-bound HRAS wild-type protein to KD value with respect to KRAS)” value [2] is reported as “B (a compound having 3 or more and less than 10 is denoted as B)”.

`CCCN1C(=O)[C@@H]2CCN2C(=O)CN(C)C(=O)[C@H]([C@@H](C)CC)NC(=O)[C@H](CC(C)C)N(C)C(=O)C[C@@H](C(=O)N2CCOCC2)N(C)C(=O)[C@H](C2CCCC2)N(C)C(=O)[C@](C)(C(C)C)NC(=O)[C@@H]2CCCN2C(=O)[C@H](CCc2cc(F)c(C(F)(F)F)c(F)c2)NC(=O)CN(C)C(=O)[C@@H]1Cc1ccc(C(F)(F)F)cc1` [PP0792] ([NMeL]I[Sar][Aze][NPrPhe(4-CF3)][Sar][hPhe(3,5-F2-4-CF3)]P[αMeV][NMeGly(cPent)][NMeD]-Morpholide; lactam N-11) was tested, and the “NRAS/KRAS (ratio of KD value with respect to GDP-bound NRAS wild-type protein to KD value with respect to KRAS)” value [1] was “C (A compound having a KD ratio of 0.1 or more and less than 3 is denoted as C)” and the “HRAS/KRAS (ratio of KD value with respect to GDP-bound HRAS wild-type protein to KD value with respect to KRAS)” value [2] was “B (a compound having 3 or more and less than 10 is denoted as B)”.

In the case of `CCCN1C(=O)[C@@H]2CCN2C(=O)CN(C)C(=O)[C@H]([C@@H](C)CC)NC(=O)[C@H](CC(C)C)N(C)C(=O)C[C@@H](C(=O)N2CCOCC2)N(C)C(=O)[C@H](C2CCCC2)N(C)C(=O)[C@](C)(CCC)NC(=O)[C@@H]2CCCN2C(=O)[C@H](CCc2cc(F)c(C(F)(F)F)c(F)c2)NC(=O)CN(C)C(=O)[C@@H]1Cc1ccc(C(F)(F)F)cc1` [PP0794] ([NMeL]I[Sar][Aze][NPrPhe(4-CF3)][Sar][hPhe(3,5-F2-4-CF3)]P[X13][NMeGly(cPent)][NMeD]-Morpholide; lactam N-11), the “NRAS/KRAS (ratio of KD value with respect to GDP-bound NRAS wild-type protein to KD value with respect to KRAS)” value [1] is reported as “C (A compound having a KD ratio of 0.1 or more and less than 3 is denoted as C)” and the “HRAS/KRAS (ratio of KD value with respect to GDP-bound HRAS wild-type protein to KD value with respect to KRAS)” value [2] is reported as “B (a compound having 3 or more and less than 10 is denoted as B)”.

In the case of `CCCN1C(=O)[C@@H]2CCN2C(=O)CN(C)C(=O)[C@H]([C@@H](C)CC)NC(=O)[C@H](CC(C)C)N(C)C(=O)C[C@@H](C(=O)N2CCOCC2)N(C)C(=O)[C@H](C2CCCC2)N(C)C(=O)[C@](C)(CC(C)C)NC(=O)[C@@H]2CCCN2C(=O)[C@H](CCc2cc(F)c(C(F)(F)F)c(F)c2)NC(=O)CN(C)C(=O)[C@@H]1Cc1ccc(C(F)(F)F)cc1` [PP0795] ([NMeL]I[Sar][Aze][NPrPhe(4-CF3)][Sar][hPhe(3,5-F2-4-CF3)]P[αMeL][NMeGly(cPent)][NMeD]-Morpholide; lactam N-11), the “NRAS/KRAS (ratio of KD value with respect to GDP-bound NRAS wild-type protein to KD value with respect to KRAS)” value [1] is reported as “C (A compound having a KD ratio of 0.1 or more and less than 3 is denoted as C)” and the “HRAS/KRAS (ratio of KD value with respect to GDP-bound HRAS wild-type protein to KD value with respect to KRAS)” value [2] is reported as “B (a compound having 3 or more and less than 10 is denoted as B)”.

From US20250230193A1, “CYCLIC COMPOUND HAVING SELECTIVE KRAS INHIBITORY EFFECT ON HRAS AND NRAS” (CHUGAI SEIYAKU KABUSHIKI KAISHA, priority 2022, published 2025)
